Source: PMC9365994, “Small molecules to regulate the GH/IGF1 axis by inhibiting the growth hormone receptor synthesis” (Frontiers in Endocrinology, 2022)
“Also recorded” adds a separate entry of the source.

Legend:
GHR [1] = target: T1, GHR (Oryctolagus cuniculus, UniProt P19941); assay: GHR and pY-GHR immunoblot in GHR-transfected Hek293 cells stimulated with GH; type: cell-based, rabbit; settings: for GHR pY HEK cells: GH 10-15 min before lysis, drugs overnight/20 h; for GHR HEK cells (GHR at PM and in ER): 10 µM drugs overnight
T1 construct: expressed in transfected cells; host or cells: Hek293 / Hek293T cells
T1 sequence (P19941 19-638): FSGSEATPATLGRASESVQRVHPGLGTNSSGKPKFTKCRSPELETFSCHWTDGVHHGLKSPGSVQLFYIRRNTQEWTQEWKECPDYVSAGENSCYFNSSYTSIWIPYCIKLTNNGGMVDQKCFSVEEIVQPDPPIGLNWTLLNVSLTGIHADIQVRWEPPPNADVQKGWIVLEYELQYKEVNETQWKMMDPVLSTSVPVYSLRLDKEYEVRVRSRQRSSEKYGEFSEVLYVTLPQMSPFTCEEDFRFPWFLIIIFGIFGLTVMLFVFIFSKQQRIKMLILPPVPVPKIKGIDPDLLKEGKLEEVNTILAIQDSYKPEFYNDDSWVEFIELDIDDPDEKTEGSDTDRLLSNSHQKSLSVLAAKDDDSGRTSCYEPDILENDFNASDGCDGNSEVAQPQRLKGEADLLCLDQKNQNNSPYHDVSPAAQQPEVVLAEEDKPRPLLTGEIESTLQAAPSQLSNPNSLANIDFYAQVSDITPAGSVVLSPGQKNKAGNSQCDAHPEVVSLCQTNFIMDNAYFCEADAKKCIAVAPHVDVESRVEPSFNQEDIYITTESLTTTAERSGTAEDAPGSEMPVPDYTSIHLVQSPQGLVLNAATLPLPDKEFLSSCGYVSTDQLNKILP
Description: (§1) For GHR-Jak2 co-immunoprecipitations, the cells were lysed in 20 mM Tris pH 8.0, 150 mM NaCl, 0.5% NP40, 1 mM PMSF, […]. Cell lysates were centrifuged to pellet the nuclei and the supernatants were used for GHR isolation in 1% Triton X-100, 0.5% SDS,0.25% sodium deoxycholate, 0.5% BSA, and inhibitors via immune precipitation with anti-GHR and protein A beads. Immunoprecipitates were subjected to reducing SDS-PAGE and transferred to Immobilon-FL polyvinylidenedifluoride membrane (Millipore). Blots were immunostained with the indicated primary antibodies followed by Alexa Fluor 680, Alexa-800 IRDye conjugated anti-mouse or anti-rabbit antibodies. Detection was performed with an Odyssey system (LI-COR Biosciences).
In the primary screen we used soluble fos-zipped GHR cytosolic tails that act in signaling complexes if co-expressed with Jak2. Initially, 6 scenarios were anticipated that can lower these signals. In the discovery itinerary we used the flow cytometer assay twice to find drugs that act on the GH-induced Jak2/STAT5 pathway and not on the identical GM/CSF-driven pathway ( Figure 3 , Figure S8 ). As the GM/CSF-induced Jak2/STAT5 pathway was not affected by the 2 hit compounds (BM004 and BM012), that served as prototypes for the final analogue selection, we excluded the possibility that they act on the Jak2 signaling pathway directly (scenario 1). To test scenario 2 (inhibition of fos-GHRct expression), we treated GHR-expressing Hek293T cells with a selection of drugs from the cell proliferation studies and analyzed the GHR species. […] The ratio between the amounts of GHR in the ER and at the PM reflects a steady state of synthesis (ER) and transport to the PM followed by endocytosis and degradation in the lysosomes. […] Because both species diminished, the drugs either inhibit the synthesis of GHR molecules or induce rapid GHR degradation in the ER. To decide between these possibilities, we performed in vitro translation experiments. […] To exclude scenario 3 (inhibition of the GHR : Jak2 interaction) we replaced the proline residues in box-1 (the binding site for Jak2) with alanine residues. […] These findings render scenarios 4-6 (increased degradation of fos-pGHRct, increased degradation of Jak2, and dephosphorylation of fos-pGHRct) unlikely.
Figure 7 Effect of drugs on protein synthesis. (A): Effect of compounds on GHR. […] The amounts of GHR both at the plasma membrane (PM) and in the ER (ER) were decreased in the drug-treated cells. […] The cells were treated for GH for 10 min before lysis to be able to monitor the pY signals, after GHR isolation by immunoprecipitation (middle panels). The effect of the drugs on the pY signals reflected those of the GHR levels (only PM species were visible). In the presence of Ruxolitinib, the protein levels were unchanged, while the pY label (middle panel) was absent. […] This experiment represents the results of 6 independent repeats. (B): BM001 concentration effects on the synthesis of fos-GHRct in a HeLa cell cell-free system. […] In the right panel the 4 proline residues in box-1 were replaced by alanine residues. Empty vector (pcDNA) was used as control. The blots were detected with anti-GHR(B). The in vitro translation was performed 5 times that all show a clear inhibitory effect of BM001 on the GHR signal. (C): Effect of selected drugs on GHR levels in human lymphoblasts. IM‐9 human B lymphoblasts express endogenous GHR. […]

[2] = system: GM-CSF-Jak2-Stat5 signaling in blood monocytes; assay: Flow cytometric (FACS) pSTAT5 test, GM-CSF-induced, blood monocytes; settings: Fig. S8B; Conc of drugs: 1 mM; incubation time 30 min
Description: First round: The PerFix EXPOSE (Beckman Coulter), was used to fix and permeabilize cells according to the optimized procedure described in Malergue et al., 2015 ([36]). Samples were analyzed in FC500 MPL. Data were analyzed with Kaluza software (Beckman Coulter). Second round: the PerFix EXPOSE was used according to the IFU and samples were analyzed in a Navios Cytometer. The first screening used pure IM-9 cells, whereas in the second round they were spiked in 100 µL whole blood (EDTA tubes). 15 min after the inhibitory compounds, the activators were added for 20-30 min.
In short: A mixture of blood and
IM9 human lymphoblast was incubated with the drugs (50 µM) for 15 MIN; GH and GM-CSF
were added 7 min before the cells were fixed with formaldehyde. Blood cells are sensitive to
GM-CSF, and not to GH; IM9 cells are sensitive to GH. A mixture of three antibodies in three
colors; CD14-FITC, CD34-PE and p-Stat5-Alexa 647 was used to analyze the p-Stat5 levels
of monocytes and IM9 cells.
Fig. S8A. FACS plots of compounds that inhibit GH-induced GHR-Jak2-Stat5 signaling in IM9 lymphoblasts.
The end point of the signaling cascade is measured by assessing the phosphorylation status of STAT5.
Stat5. Conc of drugs: 1 mM; incubation time 30 min
Fig. S8B. FACS plots of compounds that inhibit GM-CSF-Jak2-Stat5 signaling in blood monocytes. The end
point of the signaling cascade is measured by assessing the phosphorylation status of STAT5.

GHR [3] = target: T2, GHR (Homo sapiens, UniProt P10912); assay: Endogenous GHR levels in IM-9 human B lymphoblasts (immunoprecipitation); type: cell-based; settings: for levels of GHR: IM-9 lymphoblasts, in 4 h
T2 construct: endogenous in cells; host or cells: IM-9 human B lymphoblasts
T2 sequence (P10912 19-638): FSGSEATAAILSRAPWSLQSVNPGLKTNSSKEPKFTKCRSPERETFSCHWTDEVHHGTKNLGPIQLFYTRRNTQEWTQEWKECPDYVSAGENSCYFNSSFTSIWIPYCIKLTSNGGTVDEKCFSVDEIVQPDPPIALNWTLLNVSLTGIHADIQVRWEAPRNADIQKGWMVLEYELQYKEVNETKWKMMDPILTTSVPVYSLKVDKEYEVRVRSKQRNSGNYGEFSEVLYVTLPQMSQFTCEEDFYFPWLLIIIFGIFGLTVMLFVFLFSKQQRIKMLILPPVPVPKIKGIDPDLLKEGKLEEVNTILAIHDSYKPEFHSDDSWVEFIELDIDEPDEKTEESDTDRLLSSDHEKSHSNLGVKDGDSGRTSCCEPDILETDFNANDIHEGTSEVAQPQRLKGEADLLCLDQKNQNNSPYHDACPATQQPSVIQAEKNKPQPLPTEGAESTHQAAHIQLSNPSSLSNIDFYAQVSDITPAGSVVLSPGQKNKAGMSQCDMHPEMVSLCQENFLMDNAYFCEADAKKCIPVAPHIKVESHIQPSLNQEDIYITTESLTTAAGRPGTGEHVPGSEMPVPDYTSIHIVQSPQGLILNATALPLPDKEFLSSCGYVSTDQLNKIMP
Description: as §1
In the primary screen we used soluble fos-zipped GHR cytosolic tails that act in signaling complexes if co-expressed with Jak2. Initially, 6 scenarios were anticipated that can lower these signals. In the discovery itinerary we used the flow cytometer assay twice to find drugs that act on the GH-induced Jak2/STAT5 pathway and not on the identical GM/CSF-driven pathway ( Figure 3 , Figure S8 ). As the GM/CSF-induced Jak2/STAT5 pathway was not affected by the 2 hit compounds (BM004 and BM012), that served as prototypes for the final analogue selection, we excluded the possibility that they act on the Jak2 signaling pathway directly (scenario 1). To test scenario 2 (inhibition of fos-GHRct expression), we treated GHR-expressing Hek293T cells with a selection of drugs from the cell proliferation studies and analyzed the GHR species. […] The ratio between the amounts of GHR in the ER and at the PM reflects a steady state of synthesis (ER) and transport to the PM followed by endocytosis and degradation in the lysosomes. […] Because both species diminished, the drugs either inhibit the synthesis of GHR molecules or induce rapid GHR degradation in the ER. To decide between these possibilities, we performed in vitro translation experiments. […]
Figure 7 Effect of drugs on protein synthesis. […] The blots were detected with anti-GHR(B). […]

| SMILES | GHR pY HEK cells (GHR [1]) | GM-CSF-induced Stat5 phosphorylation (in words) [2] | GHR HEK cells (GHR at PM and in ER) (GHR [1]) | levels of GHR (GHR [3]) | also measured |
| --- | --- | --- | --- | --- | --- |
| Cc1nc(N)nc(N)c1C#CC1(c2ccc(Cl)cc2)CC1 [BM004] | reduced | no effect; also recorded: inactive; also recorded: not affected | – | – | – |
| Cc1nc(N)nc(N)c1/C=C/C1(c2ccc(C(F)(F)F)cc2)CC1 [BM001] | – | – | strongest effect | – | GHR in IM-9 cells (GHR [3]; drugs 4 hrs): depleted |
| Cc1c(-c2cccc(C#N)c2)ccc2nc(N)nc(N)c12 [BM002] | – | – | – | ~ 60% | – |
| CCOc1cccc2nc(N)nc(N)c12 [BM012] | reduced | no effect; also recorded: inactive; also recorded: not affected | – | – | – |
| N#CC[C@H](C1CCCC1)n1cc(-c2ncnc3[nH]ccc23)cn1 [Ruxolitinib, reference compound] | absent | – | unchanged | – | – |
| COc1cc(CN(C)c2ccc3nc(N)nc(N)c3c2)cc(OC)c1OC [BM003] | – | – | – | ~ 60% | – |
